From PubChem BioAssay AID330 (DTP/NCI, 2004)
“And” between values parts separate entries of the source, which are not always exact repeats. Equal values may be shown once. Inconclusive results and toxic doses are left out.

System: P388 leukemia ip, CD2F1 mice, survival T/C
Experiment: NCI In Vivo Anticancer Drug Screen. Data for tumor model P388 Leukemia (intraperitoneal) in CD2F1 (CDF1) mice
Settings: endpoint: median survival time, higher = longer survival
How it was run: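 Mice carrying the transplanted tumor received test compound or vehicle. Survival was recorded in each group, and the value is the treated-group measurement divided by that of the vehicle-treated control group.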

[1] = dose: 60.0 mg/kg/injection, schedule: Q01DX005 (ip), vehicle: saline with Tween-80
[2] = dose: 120.0 mg/kg/injection, schedule: Q01DX005 (ip), vehicle: saline with Tween-80
[3] = dose: 240.0 mg/kg/injection, schedule: Q01DX005 (ip), vehicle: saline with Tween-80

**Q.** How did the T/C (dose: 0.78 mg/kg/injection, schedule: Q01DX009 (ip), vehicle: saline) turn out when CCCCCCCCCCC[N+]1(CC)CCCCC1 was run?
**A.** The T/C was 112 % of control and 93 % of control.

**Q.** And the T/C (dose: 1.56 mg/kg/injection, schedule: Q01DX009 (ip), vehicle: saline)?
**A.** Its T/C is 100 % of control and 102 % of control.

**Q.** What about the T/C (dose: 3.12 mg/kg/injection, schedule: Q01DX009 (ip), vehicle: saline) of the same compound?
**A.** The T/C was 112 % of control and 97 % of control.

**Q.** What about the T/C (dose: 6.25 mg/kg/injection, schedule: Q01DX009 (ip), vehicle: saline) of the same compound?
**A.** Its T/C is 124 % of control.

**Q.** For CC1(c2ccc(-c3ccccc3)cc2)NC(=O)NC1=O (stereo not drawn), which T/C (dose: 25.0 mg/kg/injection, schedule: Q01DX009 (ip), vehicle: saline with Tween-80) is on record?
**A.** Its T/C is 91 % of control.

**Q.** And the T/C (dose: 50.0 mg/kg/injection, schedule: Q01DX009 (ip), vehicle: saline with Tween-80)?
**A.** The T/C was 86 % of control.

**Q.** What about the T/C (dose: 100.0 mg/kg/injection, schedule: Q01DX009 (ip), vehicle: saline with Tween-80) of the same compound?
**A.** Its T/C is 91 % of control.

**Q.** Which results are given for O=C(/C=C/c1ccc(Cl)cc1)NC1C=Nc2ccc([N+](=O)[O-])cc2NC1=O (stereo not drawn)?
**A.** T/C [1]: 105 % of control; T/C [2]: 100 % of control; T/C [3]: 98 % of control

**Q.** Which results are given for Nc1ccc(C(=O)Nc2ccc(C(=O)Nc3ccc(/C=C/c4ccc(NC(=O)c5ccc(N)cc5)cc4S(=O)(=O)O)c(S(=O)(=O)O)c3)cc2)cc1?
**A.** T/C (dose: 50.0 mg/kg/injection, schedule: Q01DX009 (ip), vehicle: saline): 99 % of control; T/C (dose: 100.0 mg/kg/injection, schedule: Q01DX009 (ip), vehicle: saline): 113 % of control; T/C (dose: 200.0 mg/kg/injection, schedule: Q01DX009 (ip), vehicle: saline): 100 % of control

**Q.** Which T/C [1] does the source give for [O-]/[N+]1=[N+](\[O-])c2ccccc2CCCc2ccccc21 here?
**A.** Its T/C is 102 % of control.

**Q.** What about the T/C [2] of the same compound?
**A.** Its T/C is 100 % of control.

**Q.** And the T/C [3]?
**A.** The T/C was 88 % of control.

**Q.** Which results are given for Cc1ccc(-n2c(N)cc(=O)[nH]c2=S)nc1?
**A.** T/C (dose: 56.25 mg/kg/injection, schedule: Q01DX001 (ip), vehicle: saline with Tween-80): 104 % of control; T/C (dose: 112.5 mg/kg/injection, schedule: Q01DX001 (ip), vehicle: saline with Tween-80): 100 % of control; T/C (dose: 225.0 mg/kg/injection, schedule: Q01DX001 (ip), vehicle: saline with Tween-80): 90 % of control

**Q.** What does the source list for CC(NNC(=S)N1CCCCCC1)c1cc2ccccc2cn1 (stereo not drawn)?
**A.** T/C (dose: 50.0 mg/kg/injection, schedule: Q01DX005 (ip), vehicle: saline with Tween-80): 108 % of control and 98 % of control; T/C (dose: 100.0 mg/kg/injection, schedule: Q01DX005 (ip), vehicle: saline with Tween-80): 112 % of control; T/C (dose: 200.0 mg/kg/injection, schedule: Q01DX005 (ip), vehicle: saline with Tween-80): 123 % of control; T/C (dose: 400.0 mg/kg/injection, schedule: Q01DX005 (ip), vehicle: saline with Tween-80): 153 % of control
